The results in this text go back to publication PMC6199744, “Development of Chemical Proteomics for the Folateome and Analysis of the Kinetoplastid Folateome” (ACS Infectious Diseases, 2018).

Holding throughout (format): binding
Experiment [1] has as its target T1, HeLa cell extract proteins (Homo sapiens, UniProt Q02790).
T1 construct: endogenous in cells; host or cells: HeLa cell extract
T1 sequence (Q02790 1-459): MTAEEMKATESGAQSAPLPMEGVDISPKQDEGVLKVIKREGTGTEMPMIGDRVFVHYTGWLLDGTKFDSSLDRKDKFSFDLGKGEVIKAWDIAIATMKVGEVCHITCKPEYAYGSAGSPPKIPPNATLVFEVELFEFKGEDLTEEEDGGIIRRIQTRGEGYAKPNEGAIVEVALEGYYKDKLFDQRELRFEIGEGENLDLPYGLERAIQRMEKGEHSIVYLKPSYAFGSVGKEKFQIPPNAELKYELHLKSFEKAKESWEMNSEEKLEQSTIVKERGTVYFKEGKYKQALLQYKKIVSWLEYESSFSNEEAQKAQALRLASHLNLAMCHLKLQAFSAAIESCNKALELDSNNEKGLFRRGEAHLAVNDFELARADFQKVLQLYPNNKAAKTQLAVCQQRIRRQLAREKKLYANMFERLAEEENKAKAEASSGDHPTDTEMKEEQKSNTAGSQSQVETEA

For experiment [2], the target named is T2, HeLa cell extract proteins (Homo sapiens, UniProt Q71U36).
T2 construct: endogenous in cells; host or cells: HeLa cell extract
T2 sequence (Q71U36 whole entry): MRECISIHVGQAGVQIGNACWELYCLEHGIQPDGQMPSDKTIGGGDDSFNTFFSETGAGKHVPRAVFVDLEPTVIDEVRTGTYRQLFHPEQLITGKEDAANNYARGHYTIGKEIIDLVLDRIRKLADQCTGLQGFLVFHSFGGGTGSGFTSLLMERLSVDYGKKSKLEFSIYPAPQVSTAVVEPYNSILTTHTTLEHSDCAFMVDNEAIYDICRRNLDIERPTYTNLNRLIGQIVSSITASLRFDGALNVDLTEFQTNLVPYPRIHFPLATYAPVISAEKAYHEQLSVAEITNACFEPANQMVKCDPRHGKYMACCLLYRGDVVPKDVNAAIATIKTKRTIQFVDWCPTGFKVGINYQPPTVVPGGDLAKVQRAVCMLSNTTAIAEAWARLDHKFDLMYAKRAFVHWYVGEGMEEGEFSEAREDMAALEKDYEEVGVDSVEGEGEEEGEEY

In experiment [3] the target is T3, HeLa cell extract proteins (Homo sapiens, UniProt P07237).
T3 construct: endogenous in cells; host or cells: HeLa cell extract
T3 sequence (P07237 18-508): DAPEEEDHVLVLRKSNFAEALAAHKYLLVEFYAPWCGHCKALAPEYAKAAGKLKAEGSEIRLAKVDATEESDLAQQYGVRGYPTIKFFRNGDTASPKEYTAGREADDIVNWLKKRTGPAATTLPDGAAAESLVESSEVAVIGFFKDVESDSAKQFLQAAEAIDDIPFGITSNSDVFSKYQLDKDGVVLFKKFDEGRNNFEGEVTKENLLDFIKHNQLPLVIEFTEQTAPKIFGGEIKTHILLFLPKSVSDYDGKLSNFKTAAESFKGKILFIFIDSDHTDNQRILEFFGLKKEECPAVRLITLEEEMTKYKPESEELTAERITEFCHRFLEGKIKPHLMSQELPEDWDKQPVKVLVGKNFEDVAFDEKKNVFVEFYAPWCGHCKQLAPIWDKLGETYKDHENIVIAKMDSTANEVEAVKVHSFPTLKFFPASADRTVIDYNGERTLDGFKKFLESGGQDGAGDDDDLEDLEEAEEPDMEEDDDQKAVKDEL

In experiment [4] the target is T4, HeLa cell extract proteins (Homo sapiens, UniProt O95163).
T4 construct: endogenous in cells; host or cells: HeLa cell extract
T4 sequence (O95163 1-1332): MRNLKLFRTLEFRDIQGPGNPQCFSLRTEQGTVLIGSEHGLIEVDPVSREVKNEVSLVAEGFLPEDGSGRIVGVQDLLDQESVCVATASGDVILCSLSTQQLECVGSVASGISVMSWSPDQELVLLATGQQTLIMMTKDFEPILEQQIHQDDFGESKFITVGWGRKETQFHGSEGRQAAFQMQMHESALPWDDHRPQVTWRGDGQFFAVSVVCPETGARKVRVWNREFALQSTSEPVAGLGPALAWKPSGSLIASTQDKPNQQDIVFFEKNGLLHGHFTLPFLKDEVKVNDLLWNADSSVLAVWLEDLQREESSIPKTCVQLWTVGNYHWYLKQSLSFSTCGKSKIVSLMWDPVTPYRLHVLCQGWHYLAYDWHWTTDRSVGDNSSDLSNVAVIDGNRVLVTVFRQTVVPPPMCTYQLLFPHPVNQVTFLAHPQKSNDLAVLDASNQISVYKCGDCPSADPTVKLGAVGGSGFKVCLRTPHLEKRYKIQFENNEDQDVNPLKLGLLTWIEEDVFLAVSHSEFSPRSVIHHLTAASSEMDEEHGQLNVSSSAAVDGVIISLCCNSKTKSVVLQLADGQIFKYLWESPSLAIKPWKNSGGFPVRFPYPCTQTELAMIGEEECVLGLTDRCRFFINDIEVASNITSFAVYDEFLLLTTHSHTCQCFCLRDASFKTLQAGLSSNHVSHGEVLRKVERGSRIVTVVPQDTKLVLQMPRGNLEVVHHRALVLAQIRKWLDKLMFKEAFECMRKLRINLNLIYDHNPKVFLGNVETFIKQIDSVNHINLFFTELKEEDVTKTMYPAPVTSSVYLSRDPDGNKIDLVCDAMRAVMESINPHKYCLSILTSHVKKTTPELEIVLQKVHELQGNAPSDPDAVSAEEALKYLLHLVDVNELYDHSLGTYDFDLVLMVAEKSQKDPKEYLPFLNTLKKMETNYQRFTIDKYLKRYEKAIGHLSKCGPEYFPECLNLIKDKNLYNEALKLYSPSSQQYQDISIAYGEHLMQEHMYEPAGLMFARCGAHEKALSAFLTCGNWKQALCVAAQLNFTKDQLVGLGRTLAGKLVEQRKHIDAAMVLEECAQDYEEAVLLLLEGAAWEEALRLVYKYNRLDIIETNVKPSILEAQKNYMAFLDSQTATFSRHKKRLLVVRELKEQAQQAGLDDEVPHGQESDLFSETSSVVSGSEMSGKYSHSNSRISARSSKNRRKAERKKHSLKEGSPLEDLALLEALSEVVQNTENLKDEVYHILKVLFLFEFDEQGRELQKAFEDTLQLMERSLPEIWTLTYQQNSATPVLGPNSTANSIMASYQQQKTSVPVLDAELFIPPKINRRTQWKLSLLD

In experiment [5] the target is T5, HeLa cell extract proteins (Homo sapiens, UniProt P15559).
T5 construct: endogenous in cells; host or cells: HeLa cell extract
T5 sequence (P15559 whole entry): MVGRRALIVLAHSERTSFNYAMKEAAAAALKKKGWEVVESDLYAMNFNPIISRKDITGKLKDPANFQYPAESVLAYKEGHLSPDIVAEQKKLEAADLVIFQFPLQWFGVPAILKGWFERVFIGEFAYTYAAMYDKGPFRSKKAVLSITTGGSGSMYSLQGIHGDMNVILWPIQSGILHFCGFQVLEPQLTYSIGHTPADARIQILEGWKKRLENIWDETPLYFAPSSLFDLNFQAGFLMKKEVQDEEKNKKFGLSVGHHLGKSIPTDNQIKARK

The target in experiment [6] is T6, HeLa cell extract proteins (Homo sapiens, UniProt P17987).
T6 construct: endogenous in cells; host or cells: HeLa cell extract
T6 sequence (P17987 whole entry): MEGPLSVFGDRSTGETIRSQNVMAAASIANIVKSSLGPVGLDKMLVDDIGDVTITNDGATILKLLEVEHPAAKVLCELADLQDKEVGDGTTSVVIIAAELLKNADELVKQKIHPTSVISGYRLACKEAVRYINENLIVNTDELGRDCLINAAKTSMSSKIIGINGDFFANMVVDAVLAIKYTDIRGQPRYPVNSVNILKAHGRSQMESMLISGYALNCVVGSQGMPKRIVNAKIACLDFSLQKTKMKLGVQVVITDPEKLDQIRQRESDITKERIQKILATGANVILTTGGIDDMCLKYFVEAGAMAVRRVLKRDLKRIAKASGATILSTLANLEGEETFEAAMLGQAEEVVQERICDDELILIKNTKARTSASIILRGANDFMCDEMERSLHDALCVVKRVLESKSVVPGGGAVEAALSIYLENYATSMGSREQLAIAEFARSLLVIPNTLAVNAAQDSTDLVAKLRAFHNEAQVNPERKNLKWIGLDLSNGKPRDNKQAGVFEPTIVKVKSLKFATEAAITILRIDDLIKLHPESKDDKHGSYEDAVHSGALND

The target in experiment [7] is T7, HeLa cell extract proteins (Homo sapiens, UniProt Q15120).
T7 construct: endogenous in cells; host or cells: HeLa cell extract
T7 sequence (Q15120 whole entry): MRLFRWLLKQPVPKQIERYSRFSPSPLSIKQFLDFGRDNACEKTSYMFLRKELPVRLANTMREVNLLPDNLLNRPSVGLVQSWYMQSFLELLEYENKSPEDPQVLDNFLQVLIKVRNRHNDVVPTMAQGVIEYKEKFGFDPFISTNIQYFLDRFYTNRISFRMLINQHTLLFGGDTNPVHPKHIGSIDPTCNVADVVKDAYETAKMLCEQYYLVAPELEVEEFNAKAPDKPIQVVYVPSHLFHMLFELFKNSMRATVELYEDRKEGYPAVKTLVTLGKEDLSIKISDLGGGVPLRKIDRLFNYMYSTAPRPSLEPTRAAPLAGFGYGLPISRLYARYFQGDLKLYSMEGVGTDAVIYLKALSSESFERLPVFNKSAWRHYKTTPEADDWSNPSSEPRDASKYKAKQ

Experiment [8] deals with T8, HeLa cell extract proteins (Homo sapiens, UniProt P23921).
T8 construct: endogenous in cells; host or cells: HeLa cell extract
T8 sequence (P23921 1-792): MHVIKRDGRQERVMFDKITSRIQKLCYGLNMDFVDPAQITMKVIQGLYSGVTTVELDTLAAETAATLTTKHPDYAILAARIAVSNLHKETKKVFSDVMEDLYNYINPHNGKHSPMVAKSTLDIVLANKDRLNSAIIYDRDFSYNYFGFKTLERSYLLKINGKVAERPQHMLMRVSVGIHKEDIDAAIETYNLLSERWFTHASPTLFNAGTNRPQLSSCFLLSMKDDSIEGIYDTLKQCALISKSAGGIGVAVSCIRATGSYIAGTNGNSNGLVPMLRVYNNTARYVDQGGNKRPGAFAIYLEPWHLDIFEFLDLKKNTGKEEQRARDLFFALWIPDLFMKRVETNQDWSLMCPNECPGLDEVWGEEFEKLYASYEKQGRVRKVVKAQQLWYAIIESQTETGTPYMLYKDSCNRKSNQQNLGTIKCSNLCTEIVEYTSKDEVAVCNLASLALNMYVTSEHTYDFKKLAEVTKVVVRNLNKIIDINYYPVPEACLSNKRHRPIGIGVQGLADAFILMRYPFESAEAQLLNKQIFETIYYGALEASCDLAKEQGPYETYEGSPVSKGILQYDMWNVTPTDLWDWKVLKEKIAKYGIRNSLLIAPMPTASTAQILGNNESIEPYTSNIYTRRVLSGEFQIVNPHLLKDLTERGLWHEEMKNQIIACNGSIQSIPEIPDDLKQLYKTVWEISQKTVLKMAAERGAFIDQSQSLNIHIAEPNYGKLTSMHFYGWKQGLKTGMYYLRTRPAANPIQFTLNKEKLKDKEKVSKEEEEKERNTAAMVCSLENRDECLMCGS

[9] abbreviates: HeLa, protein FKBP4 (FK506-BINDING PROTEIN 4.).

Molecules are shown by their SMILES. Read-outs that look alike come from different tables or passages of the source.

In the case of `Nc1nc2cccc(-c3ccccc3)c2n1Cc1ccc(Cl)c(Cl)c1` [compound 3], the “fold changes relative to vehicle control” value in experiment [1] (setting [9]) was found to be 1.05 fold; in experiment [2] (HeLa, protein TUBA1A), 1.06; in experiment [3] (protein P4HB, HeLa), 1; in experiment [4] (protein IKBKAP, HeLa) it was 1.12; in experiment [5] (HeLa, protein NQO1) it was 1.13; in experiment [6] (protein TCP1, HeLa), 1.09. Besides, the “fold changes relative to vehicle control” value is 0.86 in experiment [7] (captured protein PDK3, HeLa) and 0.89 in experiment [8] (protein RRM1, HeLa).

In the case of `NCCOCCOCC(=O)Nc1nc2ncc(CNc3ccc(C(=O)NC(CCC(=O)O)C(=O)O)cc3)nc2c(=O)[nH]1` (centres unmarked) [compound 6], the “fold changes relative to vehicle control” value in experiment [1] (HeLa, protein FKBP4) came out at 1.4; in experiment [2] (HeLa, protein TUBA1A), 0.97; in experiment [3] (HeLa, protein P4HB) it was 1.19; in experiment [4] (HeLa, captured protein IKBKAP), 1.2; in experiment [5] (protein NQO1, HeLa) it was 0.6; in experiment [6] (HeLa, protein TCP1), 1.32. The “fold changes relative to vehicle control” value in experiment [7] (HeLa, protein PDK3) was determined as 0.87; in experiment [8] (HeLa, protein RRM1) it was 1.06.

Take `Nc1nc2[nH]cc(CCc3ccc(C(=O)N[C@@H](CCC(=O)O)C(=O)O)cc3)c2c(=O)[nH]1` [PTX, pemetrexed]: the “fold changes relative to vehicle control” value in experiment [1] amounted to 1.18; in experiment [2], 0.91; in experiment [3], 1.03; in experiment [4], 1.11; in experiment [5] it was 0.92; in experiment [6], 1.08. Moreover, the “fold changes relative to vehicle control” value in experiment [7] was found to be 0.9; in experiment [8] it was 1.05.

For `Nc1nc2c(c(=O)[nH]1)N(C=O)C(CNc1ccc(C(=O)N[C@@H](CCC(=O)O)C(=O)O)cc1)CN2` (some centres unmarked) [LEU, leucovorin], the “fold changes relative to vehicle control” value in experiment [1] (HeLa, protein FKBP4) amounted to 1.01; in experiment [2] (HeLa, protein TUBA1A), 0.95; in experiment [3] (HeLa, protein P4HB), 0.96; in experiment [4] (HeLa, captured protein IKBKAP), 1.15; in experiment [5] (protein NQO1, HeLa) it was 1.12; in experiment [6] (HeLa, protein TCP1), 1.04. The “fold changes relative to vehicle control” value came to 0.93 in experiment [7] (HeLa, protein PDK3) and 0.99 in experiment [8] (HeLa, protein RRM1).

For the compound `CCCCCCOc1ccc(Cc2cnc(N)nc2N)cc1` [compound 1], the “fold changes relative to vehicle control” value in experiment [1] (setting [9]) came to 1.48 fold; in experiment [2] (HeLa, protein TUBA1A), 0.95; in experiment [3] (protein P4HB, HeLa), 1.31; in experiment [4] (protein IKBKAP, HeLa), 1.33; in experiment [5] (HeLa, protein NQO1) it was 1.12; in experiment [6] (protein TCP1, HeLa) it was 1.22. The “fold changes relative to vehicle control” value in experiment [7] (captured protein PDK3, HeLa) was 1; in experiment [8] (protein RRM1, HeLa) it was 1.05.

Turning to `NCCCNc1ccc(C(=O)NC(CCC(=O)O)C(=O)O)cc1` (centres unmarked) [compound 7], the “fold changes relative to vehicle control” value in experiment [1] (HeLa, protein FKBP4) was determined as 1.05; in experiment [2] (HeLa, protein TUBA1A) it was 1; in experiment [3] (HeLa, protein P4HB), 0.92; in experiment [4] (HeLa, captured protein IKBKAP), 1.01; in experiment [5] (protein NQO1, HeLa), 2.36; in experiment [6] (HeLa, protein TCP1) it was 1.07. Further, the “fold changes relative to vehicle control” value in experiment [7] (HeLa, protein PDK3) turned out to be 0.99; in experiment [8] (HeLa, protein RRM1) it was 0.96.

`CCCCCCOc1cccc(Cc2cnc(N)nc2N)c1` [compound 2]: the “fold changes relative to vehicle control” value stood at 2.28 fold in experiment [1] (setting [9]); 0.92 in experiment [2] (HeLa, protein TUBA1A); 1.79 in experiment [3] (protein P4HB, HeLa); 1.3 in experiment [4] (protein IKBKAP, HeLa); 1.22 in experiment [5] (HeLa, protein NQO1); 1.65 in experiment [6] (protein TCP1, HeLa). Moreover, the “fold changes relative to vehicle control” value is listed as 0.49 in experiment [7] (captured protein PDK3, HeLa) and 1.29 in experiment [8] (protein RRM1, HeLa).
